Common to all, as to type: functional
Experiment [1] in a line: Minimum inhibitory concentration against Microsporum species (n=38).
For experiment [2], the species on record is Cavia porcellus. Nature of the experiment: Effective dose was measured in guinea pig infected with Microsporum canis on 7th day.
The next experiment is filed under the species Mus musculus. Nature of the experiment: Effective dose was measured in mice infected with Trichophyton mentagrophytes.
For the next experiment, the system named is Epidermophyton floccosum. Description: Minimum inhibitory concentration against Epidermophyton floccosum (n=12).
The subject of another experiment is Trichophyton benhamiae. Nature of the experiment: Minimum inhibitory concentration against Trichophyton mentagrophytes (n=20).
Experiment [3] is filed under the species Cavia porcellus. Nature of the experiment: Effective dose was measured in guinea pig infected with Microsporum canis on 21st day.
A further experiment has as its system Trichophyton tonsurans. Description: Minimum inhibitory concentration against Trichophyton tonsurans (n=18).
The next experiment deals with Trichophyton rubrum. Nature of the experiment: Minimum inhibitory concentration against Trichophyton rubrum (n=14).
The next experiment relates to Aspergillus sp. Description: Minimum inhibitory concentration against Aspergillus species (n=8).
For experiment [4], the species on record is Cavia porcellus. Description: Effective dose was measured in guinea pig infected with Microsporum canis on 14th day.
Experiment [5] can be described thus: Minimum inhibitory concentration against Trichophyton species (n=80).
The subject of another experiment is Candida. Description: Minimum inhibitory concentration against Candida species (n=24).
The mark [6] stands for this setting: Cavia porcellus, read-out: ED50.
Setting [7] is: Epidermophyton floccosum, read-out: MIC50.
Setting [8] is: Epidermophyton floccosum, read-out: MIC90.
[9] abbreviates: Trichophyton benhamiae, read-out: MIC50.
Setting [10] is: Trichophyton benhamiae, read-out: MIC90.
Setting [11] is: Trichophyton tonsurans, read-out: MIC50.
[12] abbreviates: Trichophyton tonsurans, read-out: MIC90.
[13] abbreviates: Trichophyton rubrum, read-out: MIC50.
Where [14] appears, read: Trichophyton rubrum, read-out: MIC90.
[15] abbreviates: Aspergillus sp., read-out: MIC50.
Where [16] appears, read: Aspergillus sp., read-out: MIC90.

≈ marks a conversion by molar mass, not a printed value. Bounds are passed on as bounds.

Regarding `CC(C)N1CCN(c2ccc(N3CCN(c4ccc(OC[C@H]5OC[C@](Cn6cncn6)(c6ccc(F)cc6F)O5)cc4)CC3)cc2)C1=O` (stereo in doubt; 4c) [PRAMICONAZOLE], the MIC50 was 0.032 µg/mL (≈ 0.0485 µM) in experiment [1]; 0.32 µg/mL (≈ 0.485 µM) in the experiment on Epidermophyton floccosum; 0.01 µg/mL (≈ 0.0152 µM) in the experiment with Trichophyton benhamiae; 0.32 µg/mL (≈ 0.485 µM) with Trichophyton tonsurans; 0.32 µg/mL (≈ 0.485 µM) against Trichophyton rubrum; >20 µg/mL with Aspergillus sp.. For the same compound, the MIC50 (in [5]; against Candida) was 0.1 µg/mL (≈ 0.152 µM) each time. Further, the MIC90 is 0.524 µg/mL (≈ 0.794 µM) in experiment [1]; 0.093 µg/mL (≈ 0.141 µM) in the experiment with Epidermophyton floccosum; 0.032 µg/mL (≈ 0.0485 µM) against Trichophyton benhamiae; 0.1 µg/mL (≈ 0.152 µM) against Trichophyton tonsurans; 0.796 µg/mL (≈ 1.21 µM) against Trichophyton rubrum; >20 µg/mL against Aspergillus sp.. This compound also displayed an MIC90 in experiment [5] of 1.22 µg/mL (≈ 1.85 µM). The median effective dose (ED50) in the experiment filed under Cavia porcellus [2] was <0.31 mg/kg; in the experiment listed under Mus musculus, <0.63 mg/kg; in the experiment listed under Cavia porcellus [3], <0.31 mg/kg; in the experiment filed under Cavia porcellus [4] it was <0.31 mg/kg.

Regarding `CCC(C)n1ncn(-c2ccc(N3CCN(c4ccc(OC[C@H]5CO[C@](Cn6cncn6)(c6ccc(Cl)cc6Cl)O5)cc4)CC3)cc2)c1=O` (some centres undefined) [ITRACONAZOLE], the MIC50 in experiment [1] (Microsporum, read-out: MIC50) is 0.032 µg/mL (≈ 0.0453 µM); with Epidermophyton floccosum (setting [7]) it was 0.032 µg/mL (≈ 0.0453 µM); in the experiment on Trichophyton benhamiae (setting [9]) it was 0.01 µg/mL (≈ 0.0142 µM); in the experiment on Trichophyton tonsurans (setting [11]) it was 0.32 µg/mL (≈ 0.453 µM); with Trichophyton rubrum (setting [13]), 0.01 µg/mL (≈ 0.0142 µM); in the experiment on Aspergillus sp. (setting [15]), 0.32 µg/mL (≈ 0.453 µM). The MIC50 in experiment [5] (Trichophyton, read-out: MIC50) is 0.1 µg/mL (≈ 0.142 µM); in the experiment on Candida (Candida, read-out: MIC50) it was 0.1 µg/mL (≈ 0.142 µM). Moreover, the MIC90 in [1] (Microsporum, read-out: MIC90) came out at 0.524 µg/mL (≈ 0.743 µM); in the experiment on Epidermophyton floccosum (setting [8]), 0.093 µg/mL (≈ 0.132 µM); with Trichophyton benhamiae (setting [10]), 0.129 µg/mL (≈ 0.183 µM); with Trichophyton tonsurans (setting [12]), 0.524 µg/mL (≈ 0.743 µM); with Trichophyton rubrum (setting [14]), 0.32 µg/mL (≈ 0.453 µM); with Aspergillus sp. (setting [16]), 1.18 µg/mL (≈ 1.68 µM). Further, the MIC90 in [5] (Trichophyton, read-out: MIC90) was determined as 1 µg/mL (≈ 1.42 µM); with Candida, 17 µg/mL (≈ 24.1 µM). Further, the ED50 in the experiment filed under Cavia porcellus [2] (setting [6]) worked out at 0.84 mg/kg; in the experiment filed under Mus musculus (Mus musculus, read-out: ED50), 2.6 mg/kg; in the experiment filed under Cavia porcellus [3] (setting [6]), 1.18 mg/kg; in the experiment filed under Cavia porcellus [4] (setting [6]) it was 1.2 mg/kg.

With `CN(C/C=C/C#CC(C)(C)C)Cc1cccc2ccccc12` [TERBINAFINE], the MIC50 turned out to be 0.032 µg/mL (≈ 0.11 µM) in experiment [1] (Microsporum, read-out: MIC50); 0.032 µg/mL (≈ 0.11 µM) with Epidermophyton floccosum (setting [7]); 0.01 µg/mL (≈ 0.0343 µM) in the experiment with Trichophyton benhamiae (setting [9]); 0.032 µg/mL (≈ 0.11 µM) in the experiment on Trichophyton tonsurans (setting [11]); 0.01 µg/mL (≈ 0.0343 µM) in the experiment on Trichophyton rubrum (setting [13]); 0.32 µg/mL (≈ 1.1 µM) in the experiment with Aspergillus sp. (setting [15]). For the same compound, the MIC50 was 0.01 µg/mL (≈ 0.0343 µM) in [5] (Trichophyton, read-out: MIC50) and 20 µg/mL (≈ 68.6 µM) in the experiment on Candida (Candida, read-out: MIC50). The MIC90 turned out to be 0.032 µg/mL (≈ 0.11 µM) in experiment [1] (Microsporum, read-out: MIC90); 0.093 µg/mL (≈ 0.319 µM) with Epidermophyton floccosum (setting [8]); 0.01 µg/mL (≈ 0.0343 µM) in the experiment on Trichophyton benhamiae (setting [10]); 0.0524 µg/mL (≈ 0.18 µM) in the experiment with Trichophyton tonsurans (setting [12]); 0.0254 µg/mL (≈ 0.0872 µM) in the experiment on Trichophyton rubrum (setting [14]); 1.66 µg/mL (≈ 5.7 µM) in the experiment on Aspergillus sp. (setting [16]). Also, the MIC90 turned out to be 0.032 µg/mL (≈ 0.11 µM) in [5] (Trichophyton, read-out: MIC90) and 20 µg/mL (≈ 68.6 µM) against Candida. Further, the ED50 in the experiment filed under Cavia porcellus [2] (setting [6]) amounted to 10 mg/kg; in the experiment listed under Mus musculus (Mus musculus, read-out: ED50) it was 2.5 mg/kg; in the experiment listed under Cavia porcellus [3] (setting [6]) it was 10 mg/kg; in the experiment listed under Cavia porcellus [4] (setting [6]) it was 10 mg/kg.

What is called MIC50 is the lowest concentration that inhibits either 50% of growth or 50% of the strains tested, depending on the study. In general, MIC90 refers to an inhibitory concentration at the 90% level, which refers to growth in some studies and to a panel of isolates in others. By ED50 is commonly meant the midpoint of the dose-response relation.
